Experimental data reported in ChEMBL document CHEMBL1201862, “PubChem BioAssay data set” (2004).
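Method: 48-hour compound exposure of cells in 96-well plates, five concentrations, linear interpolation of endpoints. Here, GI50 denotes the concentration required for 50% inhibition of growth.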 Activity calls are given as the source filed them. No stated cut-off is given here; in the data, active = GI50 up to about 1.1 µM and inactive = higher.

Tests used:
Assay in all cases: NCI-60 cell line screen, 48 h
SNB-75 = test system: SNB-75
OVCAR-8 = test system: OVCAR-8
K562 = test system: K562
OVCAR-3 = test system: OVCAR-3
NCI-H460 = test system: NCI-H460
HCT-116 = test system: HCT-116
HOP-92 = test system: HOP-92
DU-145 = test system: DU-145
Hs-578T = test system: Hs-578T
SN12C = test system: SN12C
CAKI-1 = test system: CAKI-1
OVCAR-5 = test system: OVCAR-5
KM12 = test system: KM12
SR = test system: SR
ACHN = test system: ACHN
CCRF-CEM = test system: CCRF-CEM
SW-620 = test system: SW-620
SK-MEL-28 = test system: SK-MEL-28
NCI/ADR-RES = test system: NCI/ADR-RES
OVCAR-4 = test system: OVCAR-4
SNB-19 = test system: SNB-19
BT-549 = test system: BT-549
NCI-H226 = test system: NCI-H226
UACC-62 = test system: UACC-62
EKVX = test system: EKVX
SK-MEL-5 = test system: SK-MEL-5
IGROV-1 = test system: IGROV-1
HL-60 = test system: HL-60
HCT-15 = test system: HCT-15
MOLT-4 = test system: MOLT-4
SK-OV-3 = test system: SK-OV-3
NCI-H522 = test system: NCI-H522
Malme-3M = test system: Malme-3M
RXF 393 = test system: RXF 393
M14 = test system: M14
SF-295 = test system: SF-295
SF-268 = test system: SF-268
HOP-62 = test system: HOP-62
UACC-257 = test system: UACC-257
MDA-MB-231 = test system: MDA-MB-231
786-0 = test system: 786-0
NCI-H23 = test system: NCI-H23
MCF7 = test system: MCF7
SF-539 = test system: SF-539
MDA-MB-435 = test system: MDA-MB-435
HT-29 = test system: HT-29
UO-31 = test system: UO-31
MDA-N = test system: MDA-N
COLO 205 = test system: COLO 205
RPMI-8226 = test system: RPMI-8226
A498 = test system: A498
HCC 2998 = test system: HCC 2998
LOX IMVI = test system: LOX IMVI
U-251 = test system: U-251
PC-3 = test system: PC-3
T47D = test system: T47D
A549 = test system: A549
TK-10 = test system: TK-10
SK-MEL-2 = test system: SK-MEL-2

Measured: GI50

CO/[N+]([O-])=C\C(=O)N/C=C/C(=O)O
inactive: SNB-75 > 100 µM | OVCAR-8 > 100 µM | K562 > 100 µM | OVCAR-3 > 100 µM | NCI-H460 > 100 µM | HCT-116 > 100 µM | HOP-92 > 100 µM | DU-145 > 100 µM | Hs-578T > 100 µM | SN12C > 100 µM | CAKI-1 > 100 µM | OVCAR-5 > 100 µM | KM12 > 100 µM | SR > 100 µM | ACHN > 100 µM | CCRF-CEM > 100 µM | SW-620 > 100 µM | SK-MEL-28 > 100 µM | NCI/ADR-RES > 100 µM | OVCAR-4 > 100 µM | SNB-19 > 100 µM | BT-549 > 100 µM | NCI-H226 > 100 µM | UACC-62 > 100 µM | EKVX > 100 µM | SK-MEL-5 > 100 µM | IGROV-1 > 100 µM | HL-60 > 100 µM | MOLT-4 > 100 µM | SK-OV-3 > 100 µM | NCI-H522 > 100 µM | Malme-3M > 100 µM | RXF 393 > 100 µM | M14 > 100 µM | SF-295 > 100 µM | SF-268 > 100 µM | HOP-62 > 100 µM | UACC-257 > 100 µM | MDA-MB-231 > 100 µM | 786-0 > 100 µM | NCI-H23 > 100 µM | MCF7 > 100 µM | SF-539 > 100 µM | MDA-MB-435 > 100 µM | HT-29 > 10 µM | UO-31 > 100 µM | MDA-N > 100 µM | COLO 205 > 100 µM | RPMI-8226 79.6 µM | A498 > 100 µM | HCC 2998 > 100 µM | LOX IMVI > 100 µM | U-251 > 100 µM | PC-3 > 100 µM | T47D > 100 µM
> 100 µM: HCT-15

CC(=O)Nc1ccc2c3c(cc(O)c2c1)N(C(=O)CCCC(=O)Nc1ccc2c4c(cc(O)c2c1)N(C(=O)OC(C)(C)C)CC4CCl)CC3CCl (centres undefined)
> 50 µM: HCT-15
active: OVCAR-3 1.1 µM | HCT-116 0.851 µM | DU-145 0.769 µM | SR 0.0221 µM | CCRF-CEM 0.108 µM | BT-549 0.881 µM | UACC-62 0.998 µM | SK-MEL-5 1.1 µM | IGROV-1 1.05 µM | HL-60 0.118 µM | MOLT-4 0.0815 µM | NCI-H522 0.371 µM | Malme-3M 0.78 µM | SF-268 0.195 µM | UACC-257 1.04 µM | MCF7 0.225 µM | SK-MEL-2 0.955 µM | MDA-MB-435 0.938 µM | MDA-N 1.05 µM | A498 1.02 µM | HCC 2998 0.771 µM | LOX IMVI 0.904 µM | U-251 0.841 µM | T47D 0.418 µM
inactive: SNB-75 1.99 µM | OVCAR-8 1.94 µM | K562 1.22 µM | NCI-H460 1.48 µM | HOP-92 2.01 µM | Hs-578T 1.55 µM | SN12C 1.57 µM | CAKI-1 > 50 µM | OVCAR-5 2.3 µM | KM12 2.26 µM | ACHN 5.22 µM | SW-620 1.82 µM | SK-MEL-28 1.91 µM | A549 9.4 µM | NCI/ADR-RES > 50 µM | OVCAR-4 1.44 µM | SNB-19 1.24 µM | EKVX 5.24 µM | SK-OV-3 1.62 µM | RXF 393 2.58 µM | M14 3.22 µM | SF-295 13.4 µM | HOP-62 2.01 µM | MDA-MB-231 1.47 µM | TK-10 7.6 µM | 786-0 1.23 µM | NCI-H23 1.42 µM | SF-539 1.42 µM | HT-29 1.19 µM | UO-31 > 38.5 µM | COLO 205 1.22 µM | RPMI-8226 5.69 µM | PC-3 1.27 µM
